In test [1] the target is T1, human JNK1 (Homo sapiens, UniProt P45983).
T1 construct: His6 (Met-Ala-His6, read from primer JNK1-U) (N); made in house; host or cells: Sf-21 insect cells (baculovirus BAC-HJNK1 co-infected with BAC-caMKK7); cJUN substrate from E. coli JM109
Description: Measurement of JNK inhibitory activity (32P uptake into cJUN by active JNK1). In kind it is biochemical. The settings on record: 2.5 μM ATP, 30° C., 60 min. As for the experimental part: (4) Preparation of Active JNK1
Sf-21 cells were seeded to achieve 1×10^6 cells/ml in 100 ml of Sf-900 II SFM medium (GIBCO BRL) containing 10% fetal calf serum and cultured at 27° C. for 24 hrs. The recombinant baculovirus virus stock BAC-HJNK1 and BAC-caMKK7 were added by 0.2 ml each, and the cells were further cultured for 60 hrs. The cells were separated from the culture solution by centrifugation (3000 rpm, 10 min.) and washed twice with PBS. The cells were suspended in 10 ml of Lysis buffer (25 mM HEPES (pH 7.5), 1% Triton X, 130 mM NaCl, 1 mM EDTA, 1 mM DTT, 25 mM β-glycerophosphate, 20 μM leupeptin, 1 mM APMSF, 1 mM sodium orthovanadate) and ruptured by 4 times of treatment with a homogenizer (POLYTRON) at 20000 rpm, 30 seconds each. Active JNK1 was purified from a supernatant obtained by centrifugal separation (40000 rpm, 45 min.) by the use of Anti-FLAG M2 Affinity Gel (Sigma).
(5) Preparation of Recombinant cJUN
Escherichia coli JM109 (Toyobo Co., Ltd.) was transformed with a plasmid pGEJUN to give ampicillin resistant pGEJUN/JM109. The pGEJUN/JM109 strain was cultured overnight in 150 ml of LB medium (10 g/l tripton, 5 g/l yeast extract, 10 g/l sodium chloride) containing 50 μg/ml ampicillin at 200 rpm, 37° C. The culture solution (15 ml) was added to a fresh LB medium (150 ml) and cultured at 37° C. for 2 hrs. at 200 rpm. 1 mM IPTG (Wako Pure Chemical Industries, Ltd.) was added and the cells were further cultured for 6 hrs. The culture solution was centrifuged at 8000 rpm for 10 min. and bacterial cells were recovered, washed with PBS and frozen at −80° C. The cells were suspended in 20 ml of lysis buffer (B-PER bacterial protein extraction reagent (Pierce), Protease inhibitor Complete (Boehringer)) and shaken at room temperature for 10 min. After centrifugal separation (14000 rpm, 15 min., 4° C.), and GST-cJUN fused protein was purified from the supernatant using Redipack GST Purification Module (Amersham-Pharmacia Biotech).
(6) Measurement of JNK Inhibitory Activity
A reaction solution (37.5 μl, 25 mM HEPES (pH 7.5), 10 mM magnesium acetate, 1 mM DTT) containing 50 ng of active JNK1 and 1 μg of cJUN […]. The test compound (2.5 μl) was added and the mixture was incubated at 30° C. for 5 min. […] After reacting at 30° C. for 60 min., 50 μl of 20% TCA solution was added to stop the reaction. The reaction solution was left standing at 0° C. for 20 min. and an acid-insoluble fraction was transferred onto a GF/C filter (Packard Japan) using Cell Harvester (Packard Japan), and washed with 250 mM phosphoric acid. After drying at 45° C. for 60 min., 40 μl of Microscint 0 (Packard Japan) was added and the radioactivity was measured on TopCount (Packard Japan).

Test [2] has as its target p38α (Homo sapiens, UniProt Q16539). Description: Inhibitory action on p38α. The class given is biochemical.
Test [3] has as its target ERK1 (Homo sapiens, UniProt P27361). Put plainly: Inhibitory action on ERK1. The class given is biochemical.
Test [4] relates to Male wistar rats. Description: Pressure overloaded cardiac hypertrophy induced by an abdominal aortic stenosis (rat). In kind it is in vivo. The settings on record: 10 mg/kg p.o. once a day, day 7 after aortic stenosis. As for the experimental part:
Preparation of the Model of Pressure Overloaded Cardiac Hypertrophy Induced by an Abdominal Aortic Stenosis (Rat)
Male wistar rats (body weight 260-300 g, CLEA Japan, Inc) were used. Under xylazine (10 mg/kg, i.p.) and ketamine (50 mg/kg, i.p.) anesthesia, abdominal aorta was exposed by median laparotomy. The left and right renal arteries were detached from the back, a 22G injection needle was put along the artery and it was ligated together with the aorta using a 2-0 silk thread just below the right renal artery. Then, the injection needle was removed to make a stenosis in the abdominal aorta. The abdomen was closed and the rats were housed commonly. For a sham group, the abdomen was closed without ligation (no stenosis) with a silk thread. A compound was suspended in a 0.5% methyl cellulose solution (2 ml/kg) and orally administered at a dose of 10 mg/kg 1 hr. before aortic stenosis and once a day from day 1 (the next day of stricture) to day 7 after operation. Vehicle (0.5% methyl cellulose solution) was administered instead of the compound to the sham group and control group. At day 7 after the preparation of aortic stenosis, the body weight was measured, and the heart was removed and then extracted under pentobarbital (50 mg/kg, i.p.) anesthesia. The right and left artium and right ventricle were excised from the heart and the wet weight of the left ventricle was measured. The left ventricle weight to body weight ratio of each rat was calculated and an increase from the average value of the sham group was calculated. Inhibitory rate of each group to a cardiac hypertrophy was calculated based on the control group as 100%.

Sequence of ERK1 (P27361 whole entry): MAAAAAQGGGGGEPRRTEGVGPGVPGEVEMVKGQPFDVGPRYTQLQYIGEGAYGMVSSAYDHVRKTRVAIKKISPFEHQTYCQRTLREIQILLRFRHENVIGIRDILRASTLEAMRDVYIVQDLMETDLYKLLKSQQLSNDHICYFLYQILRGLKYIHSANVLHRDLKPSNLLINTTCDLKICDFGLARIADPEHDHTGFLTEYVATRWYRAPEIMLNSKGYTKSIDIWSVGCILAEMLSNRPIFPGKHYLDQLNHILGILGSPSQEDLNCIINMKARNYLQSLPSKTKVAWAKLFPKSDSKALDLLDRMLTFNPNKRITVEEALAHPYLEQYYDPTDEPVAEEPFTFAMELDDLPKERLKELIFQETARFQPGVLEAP
Sequence of p38α (Q16539 whole entry): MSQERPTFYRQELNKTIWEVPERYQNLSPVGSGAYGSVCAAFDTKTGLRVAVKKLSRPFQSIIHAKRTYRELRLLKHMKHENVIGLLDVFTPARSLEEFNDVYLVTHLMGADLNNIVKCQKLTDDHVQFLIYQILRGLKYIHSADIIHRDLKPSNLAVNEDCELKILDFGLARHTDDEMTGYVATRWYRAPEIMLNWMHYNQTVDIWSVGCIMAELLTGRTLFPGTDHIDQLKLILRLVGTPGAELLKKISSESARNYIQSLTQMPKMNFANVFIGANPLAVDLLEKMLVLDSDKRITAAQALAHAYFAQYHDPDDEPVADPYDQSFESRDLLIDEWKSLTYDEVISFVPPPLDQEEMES
T1 sequence (P45983 1-384 isoform P45983-2): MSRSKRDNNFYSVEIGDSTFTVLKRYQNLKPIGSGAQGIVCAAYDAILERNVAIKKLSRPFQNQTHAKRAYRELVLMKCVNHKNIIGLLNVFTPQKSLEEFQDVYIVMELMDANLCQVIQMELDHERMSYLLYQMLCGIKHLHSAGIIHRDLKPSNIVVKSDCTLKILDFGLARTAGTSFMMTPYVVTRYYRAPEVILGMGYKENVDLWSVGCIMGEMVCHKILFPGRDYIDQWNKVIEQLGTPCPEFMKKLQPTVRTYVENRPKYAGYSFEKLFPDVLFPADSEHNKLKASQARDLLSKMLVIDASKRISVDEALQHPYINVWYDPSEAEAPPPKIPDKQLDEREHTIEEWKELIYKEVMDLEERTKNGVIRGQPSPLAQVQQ

The term IC50 denotes the concentration that inhibits the measured activity by half. A low value points to higher potency. A word on the inhibition: it is how much of the control response was suppressed. A low value points to a response near the control. Regarding `COC(=O)c1c(-c2ccccc2)c2cc(Br)ccc2c(=O)n1Cc1ccc2c(c1)OCO2` [Example 24, 2-(benzo[1,3]dioxol-5-ylmethyl)-6-bromo-1-oxo-4-phenyl-1,2-dihydroisoquinoline-3-carboxylic acid methyl ester], in test [1], the IC50 amounted to 18 nM. Moreover, the values for the inhibition at 10 µM in test [2] and in test [3] were 18% and 39%, respectively.
The compound `COC(=O)c1c(-c2ccccc2)c2cc(Br)ccc2c(=O)n1Cc1ccc(S(N)(=O)=O)cc1` [Example 93, 6-bromo-1-oxo-4-phenyl-2-(4-sulfamoylbenzyl)-1,2-dihydroisoquinoline-3-carboxylic acid methyl ester] had an IC50 in test [1] of 14 nM. Besides, the inhibition at 10 µM in test [2] was determined as 20%; in test [3], 0%.
With `COC(=O)c1c(-c2ccccc2)c2cc(Br)ccc2c(=O)n1Cc1ccc(S(C)(=O)=O)cc1` [Example 94, 6-bromo-2-(4-methanesulfonylbenzyl)-1-oxo-4-phenyl-1,2-dihydroisoquinoline-3-carboxylic acid methyl ester], the inhibition at 10 µM in test [2] was determined as 2%; in test [3] it was 0%. For the same compound, in test [4], the “Inhibitory rate (cardiac hypertrophy, control group as 100%)” value is listed as “rate 40%)”.
Take `COC(=O)c1c(-c2ccccc2)c2cc(Br)ccc2c(=O)n1Cc1ccc(C(=O)O)cc1` [Example 102, 6-bromo-2-(4-carboxybenzyl)-1-oxo-4-phenyl-1,2-dihydroisoquinoline-3-carboxylic acid methyl ester]: in test [1], the IC50 is 20 nM. Besides, the inhibition at 10 µM in test [2] and in test [3] was 0% throughout.
Compound `COC(=O)c1c(-c2ccccc2)c2cc(Br)ccc2c(=O)n1CC1CCN(C(C)=O)CC1` [Example 112, 2-(1-acetylpiperidin-4-ylmethyl)-6-bromo-1-oxo-4-phenyl-1,2-dihydroisoquinoline-3-carboxylic acid methyl ester] showed an IC50 in test [1] of 3000 nM. Moreover, the inhibition at 10 µM stood at 0% in test [2] and 0.095% in test [3].
The like results for `COC(=O)c1c(-c2ccccc2)c2cc(Br)ccc2c(=O)n1Cc1ccc(NC(=O)CCC(=O)O)cc1` [Example 122, 6-bromo-2-[4-(3-carboxypropionylamino)benzyl]-1-oxo-4-phenyl-1,2-dihydroisoquinoline-3-carboxylic acid methyl ester] were, in that order, 9.2 nM, 0% and 0%.
Regarding `COC(=O)c1c(-c2ccccc2)c2cc(Br)ccc2c(=O)n1Cc1ccc(C(=O)NCCN2CCCC2)cc1` [Example 141, 6-bromo-1-oxo-4-phenyl-2-[4-(2-(pyrrolidin-1-yl)ethylcarbamoyl)benzyl]-1,2-dihydroisoquinoline-3-carboxylic acid methyl ester], in test [1], half-maximal inhibition (IC50) required 37 nM. For the same compound, the inhibition at 10 µM in test [2] stood at 10%; in test [3], 4%.
In turn, `COC(=O)c1c(-c2ccccc2)c2cc(N)ccc2c(=O)n1Cc1ccc2c(c1)OCO2` [Example 156, 6-amino-2-(benzo[1,3]dioxol-5-ylmethyl)-1-oxo-4-phenyl-1,2-dihydroisoquinoline-3-carboxylic acid methyl ester] displayed an IC50 in test [1] of 28 nM. In addition, the inhibition at 10 µM in test [2] is 10%; in test [3], 16%.
`CCC(=O)c1c(-c2ccccc2)c2cc(Br)ccc2c(=O)n1Cc1ccc(S(C)(=O)=O)cc1` [Example 315, 6-bromo-2-(4-methanesulfonylbenzyl)-4-phenyl-3-propionyl-2H-isoquinolin-1-one] gave an IC50 in test [1] of 46 nM. This compound also returned an inhibition at 10 µM in test [2] of 0%. For the same compound, in test [4], the “Inhibitory rate (cardiac hypertrophy, control group as 100%)” value is reported as “rate 44%)”; the “Left ventricular weight/body weight ratio (mg/g) amount of increase from sham group” value was 0.29 ± 0.05 (Inhibitory mg/g; the “Left ventricular weight/body weight ratio (mg/g) value” is 2.19 ± 0.05 mg/g. Besides, testing at 10 µM in test [3] gave an inhibition of 1%.
Consider `CCN(CC)NC(=O)c1ccc(Cn2c(C(=O)OC)c(-c3ccccc3)c3cc(Br)ccc3c2=O)cc1` [Example 356, 6-bromo-2-[4-(N′,N′-diethylhydrazinocarbonyl)benzyl]-1-oxo-4-phenyl-1,2-dihydroisoquinoline-3-carboxylic acid methyl ester], for which, in test [1], the IC50 came out at 7.5 nM. Moreover, the inhibition at 10 µM in test [2] and in test [3] was 0% in each case.
In turn, `CC(=O)c1c(-c2ccccc2)c2cc(Br)ccc2c(=O)n1Cc1ccc(S(N)(=O)=O)cc1` [Example 415, 3-acetyl-6-bromo-4-phenyl-2-(4-sulfamoylbenzyl)-2H-isoquinolin-1-one] registered an IC50 in test [1] of 39 nM. Further, the inhibition at 10 µM in test [2] and in test [3] was 0% each time.
With `CCCC(=O)c1c(-c2ccccc2)c2cc(Cl)ccc2c(=O)n1Cc1ccc(S(N)(=O)=O)cc1` [Example 455, 4-(6-chloro-3-butyryl-1-oxo-4-phenyl-1H-isoquinolin-2-ylmethyl)benzenesulfonamide], half-maximal inhibition in test [1] (IC50) required 34 nM. The inhibition at 10 µM in test [2] and in test [3] was 0% in each case.
`CCC(=O)c1c(-c2ccccc2)c2cc(Br)ccc2c(=O)n1Cc1ccc(C(=O)O)cc1` [Example 462, 4-(6-bromo-1-oxo-4-phenyl-3-propionyl-1H-isoquinolin-2-ylmethyl)benzoic acid] registered an IC50 in test [1] of 9.1 nM. In addition, the inhibition at 10 µM amounted to 0% in test [2] and 13% in test [3].
`CCC(=O)c1c(-c2ccccc2)c2cc(Cl)ccc2c(=O)n1Cc1ccc(C(=O)O)cc1` [Example 463, 4-(6-chloro-1-oxo-4-phenyl-3-propionyl-1H-isoquinolin-2-ylmethyl)benzoic acid]: the midpoint of inhibition in test [1], the IC50, lay at 16 nM. Further, the figures for the inhibition at 10 µM in test [2] and in test [3] were 0% and 22%, respectively.
The like results for `CCC(=O)c1c(-c2ccccc2)c2cc(Br)ccc2c(=O)n1Cc1ccc(-c2nnn[nH]2)cc1` [Example 495, 6-bromo-4-phenyl-3-propionyl-2-[4-(1H-tetrazol-5-yl)benzyl]-2H-isoquinolin-1-one] were, in that order, 6.7 nM, 0% and 37%.
The like results for `C/C(N)=C/C(=O)c1c(-c2ccccc2)c2cc(Br)ccc2c(=O)n1Cc1ccc(S(C)(=O)=O)cc1` [Example 546, 3-[(2Z)-3-aminobut-2-enoyl]-6-bromo-2-(4-methanesulfonylbenzyl)-4-phenyl-2H-isoquinolin-1-one] were, in that order, 32 nM, 0% and 5%.
